Laboratory results: ChEMBL document CHEMBL1201862, “PubChem BioAssay data set” (2004)
The source made the active and inactive calls.

Legend:
[1] = Counterscreen for inhibitors of Trypanosoma brucei methionyl tRNA synthetase (MetRS): Luminescence-based cell-based high throughput dose response assay to identify compounds that are cytotoxic to Jurkat human T lymphocyte cells.; format: functional
[2] = target: T1, Methionyl-tRNA synthetase, putative (Trypanosoma brucei brucei, UniProt Q38C91); format: functional, Trypanosoma brucei brucei strain 927/4 GUTat10.1
[3] = target: T1, Methionyl-tRNA synthetase, putative; format: functional, Trypanosoma brucei brucei strain 927/4 GUTat10.1; remark: listed apart in the source
[4] = NIH/3T3 fibroblast cytotoxicity, dose response, cytotoxicity control for T. cruzi growth inhibitor project, cell-based, cherry-pick samples, set 2 (AID 651817); format: functional; settings: NIH3T3
[5] = target: Beta-galactosidase (Escherichia coli, UniProt Q8VNN2); assay: PubChem AID 485352; format: functional
[6] = target: Long-chain-fatty-acid--AMP ligase FadD28 (Mycobacterium tuberculosis, UniProt P9WQ59); assay: Fluorescence polarization aasay to screen for inhibitors that compete for the binding of FadD28 to a bisubstrate Measured in Biochemical System Using Plate Reader - 2147-01_Inhibitor_Dose_CherryPick_Activity.; format: functional, Mycobacterium tuberculosis H37Rv
[7] = target: T2, Type-1 angiotensin II receptor (Homo sapiens, UniProt P30556); assay: AT1 receptor antagonists, dose response, selectivity assay for APJ receptor antagonist project, cell-based, uHTS hits (AID 463214); format: functional;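 also: antagonist potency against angiotensin II stimulated AT1 response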
T2 sequence (P30556 whole entry): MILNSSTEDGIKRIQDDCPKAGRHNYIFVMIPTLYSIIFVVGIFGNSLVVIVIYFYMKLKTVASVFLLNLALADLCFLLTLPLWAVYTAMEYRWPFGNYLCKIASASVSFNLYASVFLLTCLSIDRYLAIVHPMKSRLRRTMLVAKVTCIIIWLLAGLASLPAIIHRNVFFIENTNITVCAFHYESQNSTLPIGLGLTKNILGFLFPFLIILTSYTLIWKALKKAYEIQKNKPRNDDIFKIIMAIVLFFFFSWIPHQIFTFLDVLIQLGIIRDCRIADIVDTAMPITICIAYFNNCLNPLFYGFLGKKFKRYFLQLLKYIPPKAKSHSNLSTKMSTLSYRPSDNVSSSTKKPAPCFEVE

T1 sequence (Q38C91 whole entry): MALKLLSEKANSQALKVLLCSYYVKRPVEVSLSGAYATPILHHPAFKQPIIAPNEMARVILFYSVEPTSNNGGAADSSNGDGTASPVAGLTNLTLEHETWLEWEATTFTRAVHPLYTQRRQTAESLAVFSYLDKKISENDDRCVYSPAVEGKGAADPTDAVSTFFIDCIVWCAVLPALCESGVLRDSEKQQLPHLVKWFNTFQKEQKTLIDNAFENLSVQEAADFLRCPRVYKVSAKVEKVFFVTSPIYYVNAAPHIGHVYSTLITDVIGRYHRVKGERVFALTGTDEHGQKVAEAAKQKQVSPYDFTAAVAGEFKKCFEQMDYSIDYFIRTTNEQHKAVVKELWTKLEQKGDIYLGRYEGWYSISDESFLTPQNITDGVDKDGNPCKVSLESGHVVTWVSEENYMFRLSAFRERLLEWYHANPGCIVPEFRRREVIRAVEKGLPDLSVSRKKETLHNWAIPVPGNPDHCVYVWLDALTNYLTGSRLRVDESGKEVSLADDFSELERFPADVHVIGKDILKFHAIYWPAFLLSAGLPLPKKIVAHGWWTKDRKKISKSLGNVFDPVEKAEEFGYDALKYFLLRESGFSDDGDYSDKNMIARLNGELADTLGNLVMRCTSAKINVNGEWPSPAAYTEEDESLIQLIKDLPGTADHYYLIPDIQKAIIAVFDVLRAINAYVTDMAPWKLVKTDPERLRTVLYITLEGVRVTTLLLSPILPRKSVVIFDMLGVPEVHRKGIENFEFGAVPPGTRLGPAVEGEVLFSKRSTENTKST
Sequence of Beta-galactosidase (Q8VNN2 whole entry): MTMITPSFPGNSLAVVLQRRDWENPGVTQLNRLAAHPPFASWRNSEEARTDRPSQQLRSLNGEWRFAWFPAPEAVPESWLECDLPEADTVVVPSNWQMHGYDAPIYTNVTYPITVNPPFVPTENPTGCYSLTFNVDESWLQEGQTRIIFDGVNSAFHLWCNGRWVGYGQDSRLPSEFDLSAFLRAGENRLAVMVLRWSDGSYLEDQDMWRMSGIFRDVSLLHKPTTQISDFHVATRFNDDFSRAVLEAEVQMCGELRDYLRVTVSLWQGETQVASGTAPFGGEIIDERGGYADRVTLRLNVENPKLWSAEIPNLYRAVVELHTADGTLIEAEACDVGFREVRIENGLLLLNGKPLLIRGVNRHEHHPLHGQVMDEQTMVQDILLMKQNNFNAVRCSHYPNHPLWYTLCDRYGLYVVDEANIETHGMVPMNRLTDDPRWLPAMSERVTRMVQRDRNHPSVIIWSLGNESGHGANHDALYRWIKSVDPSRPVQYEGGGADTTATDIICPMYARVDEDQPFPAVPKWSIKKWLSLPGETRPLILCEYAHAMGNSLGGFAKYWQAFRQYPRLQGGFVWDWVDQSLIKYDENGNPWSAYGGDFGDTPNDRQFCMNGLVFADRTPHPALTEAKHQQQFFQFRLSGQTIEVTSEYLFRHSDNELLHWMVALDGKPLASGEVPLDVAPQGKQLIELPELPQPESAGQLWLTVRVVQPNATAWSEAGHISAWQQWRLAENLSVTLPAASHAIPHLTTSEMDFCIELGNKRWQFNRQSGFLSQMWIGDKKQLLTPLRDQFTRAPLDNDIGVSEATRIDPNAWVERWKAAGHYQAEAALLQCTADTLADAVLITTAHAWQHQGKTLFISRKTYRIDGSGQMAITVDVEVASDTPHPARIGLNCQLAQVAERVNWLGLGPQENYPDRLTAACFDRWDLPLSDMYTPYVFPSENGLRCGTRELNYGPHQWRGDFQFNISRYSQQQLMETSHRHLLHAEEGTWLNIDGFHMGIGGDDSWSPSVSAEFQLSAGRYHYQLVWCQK
Sequence of Long-chain-fatty-acid--AMP ligase FadD28 (P9WQ59 whole entry): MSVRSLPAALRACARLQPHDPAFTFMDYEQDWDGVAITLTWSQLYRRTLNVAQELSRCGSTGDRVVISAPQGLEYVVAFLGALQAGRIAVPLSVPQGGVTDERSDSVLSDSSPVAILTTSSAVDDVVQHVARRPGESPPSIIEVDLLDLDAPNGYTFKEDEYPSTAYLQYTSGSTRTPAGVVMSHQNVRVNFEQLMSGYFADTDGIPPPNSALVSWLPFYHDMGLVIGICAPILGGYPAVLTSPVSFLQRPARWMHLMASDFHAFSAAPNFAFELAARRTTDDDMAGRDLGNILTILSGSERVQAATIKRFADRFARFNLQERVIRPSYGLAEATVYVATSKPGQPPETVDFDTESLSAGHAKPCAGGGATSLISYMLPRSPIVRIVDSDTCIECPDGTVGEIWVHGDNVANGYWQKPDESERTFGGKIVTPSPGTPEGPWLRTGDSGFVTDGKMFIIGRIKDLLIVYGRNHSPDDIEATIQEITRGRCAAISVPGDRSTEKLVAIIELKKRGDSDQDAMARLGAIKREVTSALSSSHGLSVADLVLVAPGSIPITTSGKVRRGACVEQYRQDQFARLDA

CSC[C@H]1CN(Cc2cccnc2)C(=O)[C@@H]1CC(=O)Nc1ccc(Br)cc1
IC50 [1]: 83.3 µM (inactive) | IC50 [2]: 7.58 µM (active) | IC50 [3]: 3.02 µM (active)

Cc1ccc(S(=O)(=O)N(C)C[C@@H]2Oc3c(NC(=O)c4nc5ccccc5s4)cccc3C(=O)N([C@@H](C)CO)C[C@@H]2C)cc1
AC50 [4]: 39 µM (inactive)

Cc1ccc(NC(=S)NNC(=O)c2ccc(N3CCOCC3)c([N+](=O)[O-])c2)cc1Cl
EC50 [5]: > 40 µM (inactive) | AC50 [6]: 30.9 µM (active) | IC50 [7]: > 40 µM (not active)
